Molecules are shown by their SMILES. Numbered stars: 1 amine (or outer) side, 2 acyl side, 3 side chain; on linkers, the order of the positions; unused ones are H or OH. Bridge positions count the residues as written; N and C are the ends. Square brackets hold non-standard residues; d marks the D form. Peptide text beside a SMILES is read from it. * marks the point of attachment. hPhe(3-Cl-4-CF3) = N[C@@H](CCc1ccc(C(F)(F)F)c(Cl)c1)C(=O)O; NMePhe(4-CF3) = CN[C@@H](Cc1ccc(C(F)(F)F)cc1)C(=O)O; 3Oxa8azabicyclo(3.2.1)octane = C1CC2COCC1N2*; NMeAbu(4,4,4-F3) = CN[C@@H](CC(F)(F)F)C(=O)O; NMePhe(2-CN) = CN[C@@H](Cc1ccccc1C#N)C(=O)O; NMedβ3hAla = C[C@H](CC(=O)[*:2])N(C)[*:1]; NMeAla(cPent) = CN[C@@H](CC1CCCC1)C(=O)O; Phe(4-Cl) = N[C@@H](Cc1ccc(Cl)cc1)C(=O)O; NMeGly(cPent) = CN[C@H](C(=O)O)C1CCCC1; Phe(3-I) = N[C@@H](Cc1cccc(I)c1)C(=O)O; NMeCha = CN[C@@H](CC1CCCCC1)C(=O)O; NMeChg = CN[C@H](C(=O)O)C1CCCCC1; NMeI = CC[C@H](C)[C@H](NC)C(=O)O; NMeD = CN[C@@H](CC(=O)O)C(=O)O; NMeL = CN[C@@H](CC(C)C)C(=O)O; NMePra = C#CC[C@H](NC)C(=O)O; NMeV = CN[C@H](C(=O)O)C(C)C; d(β3hA) = C[C@@H](N)CC(=O)O; NMeAbu = CC[C@H](NC)C(=O)O; Morpholide = C1CN(*)CCO1; NMeA = CN[C@@H](C)C(=O)O; NMeAib = CNC(C)(C)C(=O)O; Piperidide = C1CCN(*)CC1; Pyrrolidide = C1CCN(*)C1; dNMeA = CN[C@H](C)C(=O)O; Ac5c = NC1(C(=O)O)CCCC1; Aze = O=C(O)[C@@H]1CCN1; Sar = CNCC(=O)O A value given as a limit tells only on which side of the number the result lay.

For the assay, the system named is Human pancreatic cancer cell line AsPC-1 (G12D mutation Kras). Nature of the assay: AsPC-1 cell growth inhibition (AsPC-1 CGI). Format: cell-based. The following applies: read-out: AsPC-1 cell growth inhibition, 50% growth inhibitory concentration (IC50 value); 96 hours, CellTiter-Glo, values classified in ranges. Background: In ATP-based viability assays light output follows the ATP content of the culture.
Experimental: Test compounds were serially dilated with dimethyl sulfoxide, and 200 nL was then dispensed to a U-bottom 96-well plate using Labcyte Echo. […] The cell suspension was dispensed to a. plate containing a test compound at 100 μL per well and incubated at 37° C. in a 5% carbon dioxide gas incubator. 96 hours later, 80 μL of CellTiter-Glo (Promega) was added to each well and fluorescence was measured.
`CC[C@H](C)[C@@H]1NC(=O)[C@H](CC(F)(F)F)N(C)C(=O)C[C@@H](C(=O)N2CCOCC2)N(C)C(=O)[C@H](C2CCCCC2)N(C)C(=O)C2(CCCC2)NC(=O)[C@@H]2CCCN2C(=O)[C@H](CCc2ccc(C(F)(F)F)c(Cl)c2)NC(=O)CN(C)C(=O)[C@H](Cc2ccc(C(F)(F)F)cc2)N(C)C(=O)CN(C)C(=O)CN(C)C1=O` [Compound 981] ([NMeAbu(4,4,4-F3)]I[Sar][Sar][NMePhe(4-CF3)][Sar][hPhe(3-Cl-4-CF3)]P[Ac5c][NMeChg][NMeD]-Morpholide; lactam N-11): the IC50 is no more than 20 nM.

For `C#CC[C@H]1C(=O)N(C)CC(=O)N[C@@H](CCc2ccc(C(F)(F)F)c(Cl)c2)C(=O)N2CCC[C@H]2C(=O)NC2(CCCC2)C(=O)N(C)[C@@H](C2CCCCC2)C(=O)N(C)[C@H](C(=O)N2CCCCC2)CC(=O)N(C)[C@@H](CC(C)C)C(=O)N[C@@H]([C@@H](C)CC)C(=O)N(C)CC(=O)N(C)CC(=O)N1C` [Compound 554] ([NMeL]I[Sar][Sar][NMePra][Sar][hPhe(3-Cl-4-CF3)]P[Ac5c][NMeChg][NMeD]-Piperidide; lactam N-11), the IC50 is greater than 500 nM.

For the molecule `CC[C@H](C)[C@@H]1NC(=O)[C@H](CC(C)C)N(C)C(=O)C[C@@H](C(=O)N2CCCCC2)N(C)C(=O)[C@H](CC(C)C)NC(=O)C(C)(C)N(C)C(=O)[C@H](Cc2ccc(Cl)cc2)NC(=O)[C@H](Cc2cccc(I)c2)NC(=O)CN(C)C(=O)[C@H](CC2CCCCC2)N(C)C(=O)CN(C)C(=O)CN(C)C1=O` [Compound 330] ([NMeL]I[Sar][Sar][NMeCha][Sar][Phe(3-I)][Phe(4-Cl)][NMeAib]L[NMeD]-Piperidide; lactam N-11), the IC50 was greater than 500 nM.

With `CC[C@H](C)[C@@H]1NC(=O)[C@H](CC(C)C)N(C)C(=O)C[C@@H](C)N(C)C(=O)[C@H](C(C)C)N(C)C(=O)C2(CCCC2)NC(=O)[C@@H]2CCCN2C(=O)[C@H](CCc2ccc(C(F)(F)F)c(Cl)c2)NC(=O)CN(C)C(=O)[C@H](Cc2ccccc2C#N)N(C)C(=O)CN(C)C(=O)CN(C)C1=O` [Compound 357] (cyclo([Ac5c][NMeV][NMedβ3hAla][NMeL]I[Sar][Sar][NMePhe(2-CN)][Sar][hPhe(3-Cl-4-CF3)]P)), the IC50 was greater than 500 nM.

For `CC[C@H](C)[C@@H]1NC(=O)[C@H](CC(C)C)N(C)C(=O)C[C@@H](C(=O)N2CCCCC2)N(C)C(=O)[C@H](C2CCCCC2)N(C)C(=O)C2(CCCC2)NC(=O)[C@@H]2CCCN2C(=O)[C@H](CCc2ccc(C(F)(F)F)c(Cl)c2)NC(=O)CN(C)C(=O)[C@H](CC)N(C)C(=O)CN(C)C(=O)CN(C)C1=O` [Compound 1743] ([NMeL]I[Sar][Sar][NMeAbu][Sar][hPhe(3-Cl-4-CF3)]P[Ac5c][NMeChg][NMeD]-Piperidide; lactam N-11), the IC50 is greater than 500 nM.

For `CC[C@H](C)[C@@H]1NC(=O)[C@H](CC(C)C)N(C)C(=O)C[C@@H](C(=O)N2C3CCC2COC3)N(C)C(=O)[C@H]([C@@H](C)CC)N(C)C(=O)C2(CCCC2)NC(=O)[C@@H]2CCCN2C(=O)[C@H](CCc2ccc(C(F)(F)F)c(Cl)c2)NC(=O)CN(C)C(=O)[C@H](Cc2ccc(C(F)(F)F)cc2)N(C)C(=O)[C@@H]2CCN2C(=O)[C@H](C)N(C)C1=O` [Compound 545] ([NMeL]I[NMeA][Aze][NMePhe(4-CF3)][Sar][hPhe(3-Cl-4-CF3)]P[Ac5c][NMeI][NMeD]-{3Oxa8azabicyclo(3.2.1)octane}; lactam N-11), the IC50 is no more than 20 nM.

As for `CC[C@H](C)[C@@H]1NC(=O)[C@H](CC(C)C)N(C)C(=O)C[C@@H](C(=O)N2CCCCC2)N(C)C(=O)[C@H](C2CCCCC2)N(C)C(=O)C2(CCCC2)NC(=O)[C@@H]2CCCN2C(=O)[C@H](CCc2ccc(C(F)(F)F)c(Cl)c2)NC(=O)[C@H](C)N(C)C(=O)[C@H](CC2CCCCC2)N(C)C(=O)CN(C)C(=O)CN(C)C1=O` [Compound 722] ([NMeL]I[Sar][Sar][NMeCha][NMeA][hPhe(3-Cl-4-CF3)]P[Ac5c][NMeChg][NMeD]-Piperidide; lactam N-11), the IC50 was greater than 500 nM.

Regarding `CC[C@H](C)[C@@H]1NC(=O)[C@H](C)N(C)C(=O)C[C@@H](C)NC(=O)[C@H](C2CCCC2)N(C)C(=O)C2(CCCC2)NC(=O)[C@@H]2CCCN2C(=O)[C@H](CCc2ccc(C(F)(F)F)c(Cl)c2)NC(=O)[C@@H](C)N(C)C(=O)[C@H](Cc2ccc(C(F)(F)F)cc2)N(C)C(=O)CN(C)C(=O)CN(C)C1=O` [Compound 1520] (cyclo([Ac5c][NMeGly(cPent)][d(β3hA)][NMeA]I[Sar][Sar][NMePhe(4-CF3)][dNMeA][hPhe(3-Cl-4-CF3)]P)), the IC50 is greater than 500 nM.

`CC[C@H](C)[C@@H]1NC(=O)[C@H](CC2CCCC2)N(C)C(=O)C[C@@H](C(=O)N2CCCC2)N(C)C(=O)[C@H]([C@@H](C)CC)N(C)C(=O)C2(CCCC2)NC(=O)[C@@H]2CCCN2C(=O)[C@H](CCc2ccc(C(F)(F)F)c(Cl)c2)NC(=O)CN(C)C(=O)[C@H](Cc2ccc(C(F)(F)F)cc2)N(C)C(=O)[C@@H]2CCN2C(=O)[C@H](C)N(C)C1=O` [Compound 1183] ([NMeAla(cPent)]I[NMeA][Aze][NMePhe(4-CF3)][Sar][hPhe(3-Cl-4-CF3)]P[Ac5c][NMeI][NMeD]-Pyrrolidide; lactam N-11): the IC50 was no more than 20 nM.

Source of the values: patent US20240148821A1, “PHARMACEUTICAL USE OF CYCLIC PEPTIDE COMPOUND” (CHUGAI SEIYAKU KABUSHIKI KAISHA, priority 2021, published 2024).
